Results: patent EP2272342B1, “Herbicidal compositions” (BASF SE, priority 1993, dated 1994)

What was measured:
[1] = test system: Solanum/Chenopodium; assay: Small field units in a maize field, 3-way tank-mix spray: weed control (Example 4); type: in vivo, solanum nigrum and chenopodium album; details: 1500 a.i./ha; 14 days after treatment
Protocol: Small field units in a maize field, infested with echinochloa crus galli, solanum nigrum and chenopodium album are sprayed with a tank-mix suspension of dimethenamid, sulcotrione and atrazine. The stage of the weeds is "full tillering" of echinochloa and "6-8 leaves stage" for solanum and chenopodium. The lot size is 8 meters in length and 3 meters in broadth. […] 14 days after treatment the efficacy is evaluated.

[2] = test system: echinochloa crus galli; assay: as above; type: in vivo; details: 1500 a.i./ha; 14 days after treatment
Text: Small field units in a maize field, infested with echinochloa crus galli, solanum nigrum and chenopodium album are sprayed with a tank-mix suspension of dimethenamid, sulcotrione and atrazine. The stage of the weeds is "full tillering" of echinochloa and "6-8 leaves stage" for solanum and chenopodium. The lot size is 8 meters in length and 3 meters in broadth. The application rates are 1.08 kg/ha of dimethenamid, 150 or 210 g/ha of sulcotrione and 750 g/ha of atrazine. 14 days after treatment the efficacy is evaluated.

[3] = test system: large crabgrass; assay: Field trial in corn, tankmix at early post-emergence: weed control (Example 2); type: in vivo
Protocol: A field trial is carried out employing FRONTIER® 7.5 EC and ACCENT® 75 WDG in control of large crabgrass in corn. Application is as tankmix combination at early post-emergence of the weeds (3 and 4 leaf stages). Application rates of a.i. are 1.5 and 0.75 kg/ha for dimethenamid and 37.2 and 19.2 g/ha for nicosulfuron. Combined application of 0.75 kg/ha of dimethenamid and 19.2 g/ha of nicosulfuron gave 85% control with negligible corn damage compared with 35% of nicosulfuron applied alone at 19.2 g/ha and 72% for dimethenamid at a higher rate of […]. Combined application at the higher rate of dimethenamid with 37.2 g/ha of nicosulfuron gave an even more dramatic effect with 95% control compared with 72% for dimethenamid and only 45% for nicosulfuron each alone.

[4] = test system: cyperus rotundus; assay: Field trial in sugar cane plots, tank mix by backpack sprayer: weed control (Example 5); type: in vivo
Protocol: A field trial is carried out on plots (2 x 20 m) planted with sugar cane and infested with cyperus rotundus in the first or second growing stage and sprayed with a backpack sprayer in different concentrations in a tank mix. The amount of liquid spray broth is 400 I/ha.
The application rates are 2.7 kg/ha of dimethenamid with 60 g/ha of chlorimuron or with 1.6 kg/ha of a fixed ratio mixture of chlorimuron and diuron (1 : 19) which is commercially available as FRONT®. Visual evaluation is done 30 or 60 days after treatment (DAT) in percentage of control. The expected additive effect value is calculated according to the method of Colby: […]

`CCNc1nc(Cl)nc(NC(C)C)n1` [Atrazine, atrazine] gave a Solanum/Chenopodium control [1] of 16% and an Echinochloa control [2] of 23%.
`COCC(C)N(C(=O)CCl)c1c(C)csc1C` (centres unmarked) [Dimethenamid, 2-chloro-N-(2,4-dimethyl-3-thienyl)-N-(2-methoxy-1-methylethyl)-acetamide] was tested, and the control ([3]; dimethenamid alone at a higher rate of 1.25 g/ha (so in the source)) was 72%, the control ([3]; dimethenamid alone, higher rate (second comparison)) was 72% and the “Cyperus Control (DAT)” value ([4]; 2.25 kg a.i./ha, light to medium soil, 30 DAT) was 23 (30 DAT) %. For the same compound, the “Cyperus Control (DAT)” value ([4]; 2.7 kg a.i./ha, heavy soil, 60 DAT) was 10 (60 DAT) %, the “Cyperus Control (DAT)” value ([4]; 2.7 kg a.i./ha, light to medium soil, 30 DAT) was 27 (30 DAT) % and the “Cyperus Control (DAT)” value ([4]; 2.7 kg a.i./ha, light to medium soil, 60 DAT) was 19 (60 DAT) %.
With `COc1cc(OC)nc(NC(=O)NS(=O)(=O)c2ncccc2C(=O)N(C)C)n1` [nicosulfuron] the control ([3]; nicosulfuron alone, 37.2 g/ha) was 45% and the control ([3]; nicosulfuron applied alone at 19.2 g/ha) was 35%.
chlorimuron was tested, and the “Cyperus Control (DAT)” value ([4]; 0.06 kg a.i./ha, light to medium soil, 30 DAT) was 58 (30 DAT) %.
